Measured values taken from US20250109140A1, “5-[5-(PIPERIDIN-4-YL)THIENO[3,2-C]PYRAZOL-2-YL]INDAZOLE DERIVATIVES AND RELATED COMPOUNDS AS MODULATORS FOR SPLICING NUCLEIC ACIDS AND FOR THE TREATMENT OF PROLIFERATIVE DISEASES” (REMIX THERAPUTICS INC., priority 2022, published 2025).
Like-named read-outs stand apart in the source and are kept apart here.

Assays:
MYB mRNA = assay: Splicing RT-qPCR assay, MYB canonical (CJ) and alternative (AJ) junction mRNA; assay type: cell-based; details: Homo sapiens; for EC50: AC50 = 50% response in AJ mRNA increase
Method in brief: (§1)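 Junction-specific RT-qPCR read-out: CJ marks canonical transcript, AJ marks alternative-exon inclusion, each normalized to GAPDH, GUSB or PPIA. Cells (A673 or K562) were dosed for 24 h with compound up to 10 uM final in 11 3-fold steps. RQ from 2^(−ΔΔCt) against DMSO became percentage response.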

Target C = assay: HiBiT protein abundance assay, Target C (K562 HiBiT knock-in cells); assay type: cell-based, human; details: 24 hours treatment
Experimental: • Promega Nano-Glo HiBiT Lytic Detection System (cat #N3030) • Corning 384-well TC-treated microplates (cat #3570) • Synthego Engineered Cells Knock-In Clones
(§2) Cells were maintained in IMDM with 10% FBS. Before the assay, cells were diluted with […] growth media (IMDM+[…] media) and were seeded in a 384-well plate at a density of 10000 cells/well (for each cell line listed in Table 6). Each compound was prepared as a 10-point 3-fold serial dilution in DMSO with the top dose at a final concentration of […] in the well. Unmodified K562 cells were added at the previously specified density with DMSO to serve as an assay baseline and positive control (PC) and DMSO only with the respective modified cell lines was added to the negative control (NC) columns. Final DMSO concentration was kept at or below 0.25%. Treated cell plates were placed in an incubator at 37° C. with […] for 24 hours. After 24 hours, 25 μL of Complete HiflitLytic reagent was added to each well at room temperature (e.g. one plate requiring 10 mL Lytic Buffer, 100 μL LgBiT Protein, 200 μL Lytic Substrate), shaken for 5 minutes at 600 RPM, then left to sit for 10 minutes for signal to stabilize before reading on a Spark Cyto plate reader (Tecan) with a 500 ms measurement time.
(§3) To determine compound effects on protein abundance of each target in Table 6, the percent response for each respective cell line was calculated at each compound concentration as follows:
(§4) For the normalized response at each concentration, a four-parameter logistical regression was fit to the data and the response was interpolated at the 50% value to determine a concentration for protein abundance at 50% (IC50) the untreated control.

Target C mRNA = assay: Splicing RT-qPCR gene panel, Target C canonical junction (CJ) mRNA; assay type: cell-based; details: Homo sapiens; Table 8; larger gene panel, decrease in CJ mRNA levels
Method in brief: as §1

HiBiT-tagged MYB protein = assay: HiBiT protein abundance assay, MYB (K562 HiBiT knock-in cells); assay type: cell-based, human; details: 24 hours treatment
Experimental: (§5) Compounds described herein were used to screen for effects on quantitative protein abundance using a HiBit assay system (Promega). Quantitative protein abundance was determined by measuring the protein levels of HiBit-tagged protein targets expressed in cell culture via luminescence using the Nano-Glo HiBiT Lytic Detection System, which uses a split complementation assay format to reconstitute NanoBiT enzyme to generate a luminescent signal. A protein abundance assay was developed such that endogenous protein targets could be modified with the HiBiT peptide tag and their abundance could be assessed after compound treatment. Briefly, K562 cell lines containing a HiBiT-modification were treated with various compounds described herein (e.g., compounds of Formulas (I), or (II)). After treatment for 24 hours, the protein abundance of a specific target was determined by measuring luminescence.
as §2, §3, §4

SMN2 mRNA = assay: Splicing RT-qPCR gene panel, SMN2 canonical junction (CJ) mRNA; assay type: cell-based; details: Homo sapiens; Table 8; larger gene panel, decrease in CJ mRNA levels
Method in brief: as §1

HiBiT-tagged HTT protein = assay: HiBiT protein abundance assay, HTT (K562 HiBiT knock-in cells); assay type: cell-based, human; details: 24 hours treatment
Experimental: as §5, §2, §3, §4

HTT mRNA = assay: Splicing RT-qPCR assay, HTT canonical (CJ) and alternative (AJ) junction mRNA; assay type: cell-based; details: Homo sapiens; for EC50: AC50 = 50% response in AJ mRNA increase
Method in brief: as §1

[1] = tested on: K562 (human chronic myelogenous leukemia) cells; assay: Cell viability, Cell Titer Glo 2.0 assay, K562 cells; assay type: cell-based; details: 72 hours
Experimental: Compounds described herein were screened for toxicity in K562 (human chronic myelogenous leukemia) and SH-SY5Y (human neuroblastoma) cells using a Cell Titer Glo 2.0 assay.
Cells were plated at 500 cells/well (K562 cells) in 45 μL of IMDM supplemented with 10% FBS in a 384-well opaque plate. Wells containing only medium were used as a blank control. Test compounds (e.g., compounds of Formula (I), (III), (IV), (V), or (VI)) were first serially diluted in DMSO then diluted 1:100 with IMDM+10% FBS. The final concentration of DMSO was 0.1% in each well. The cells were incubated for 72 hours at 37° C. and 5% CO2 before assaying with Cell Titer Glo 2.0 reagent.

[2] = Table 7, RT-qPCR, A673 or K562 cells, 24 hours treatment
[3] = Table 7, IC50 = 50% response in CJ mRNA decrease, RT-qPCR, A673 or K562 cells, 24 hours treatment, read-out: MYB CJ
[4] = Table 8, larger gene panel, decrease in CJ mRNA levels, read-out: MYB CJ IC50
[5] = Table 7, IC50 = 50% response in CJ mRNA decrease, RT-qPCR, A673 or K562 cells, 24 hours treatment, read-out: HTT CJ
[6] = Table 8, larger gene panel, decrease in CJ mRNA levels, read-out: HTT CJ IC50

EC50 (MYB mRNA; [2]) [µM] | IC50 (MYB mRNA; [3]) [µM] | IC50 (MYB mRNA; [4]) [µM] | IC50 (Target C) [µM] | IC50 (Target C mRNA) [µM] | IC50 (HiBiT-tagged MYB protein) [µM] | IC50 (SMN2 mRNA) [µM] | IC50 (HiBiT-tagged HTT protein) [µM] | EC50 (HTT mRNA; [2]) [µM] | IC50 (HTT mRNA; [5]) [µM] | IC50 (HTT mRNA; [6]) [µM] | IC50 [1] [µM] | SMILES
> 10 | > 10 | > 10 | > 10 | > 10 | > 10 | > 10 | > 10 | > 10 | > 10 | > 10 | > 10 | COc1c(-c2cc3cn(C4CCNCC4)nc3s2)cc(F)c2nn(C)cc12 [Compound 224]
0.1 to 1 | 0.1 to 1 | 0.1 to 1 | 0.1 to 1 | 0.1 to 1 | 0.1 to 1 | < 0.1 | < 0.1 | < 0.1 | < 0.1 | < 0.1 | 0.1 to 1 | Cn1cc2cc(-c3cc4cn(C5CCNCC5)nc4s3)c(F)cc2n1 [Compound 210]
1 to 10 | 1 to 10 | 1 to 10 | 0.1 to 1 | 1 to 10 | 1 to 10 | < 0.1 | < 0.1 | 0.1 to 1 | 0.1 to 1 | 0.1 to 1 | 1 to 10 | Cc1nc2cc(O)c(-c3nc4cn(C5CCNCC5)nc4s3)cc2o1 [Compound 1104]
> 10 | > 10 | > 10 | > 10 | > 10 | > 10 | 1 to 10 | > 10 | > 10 | > 10 | > 10 | 1 to 10 | COc1c(-c2cc3cn(C4CCNCC4)nc3s2)nn2cc(C)nc(C)c12 [Compound 219, 4-(5-{3-methoxy-4,6-dimethylpyrazolo[1,5-a]pyrazin-2-yl}thieno[2,3-c]pyrazol-2-yl) piperidine]
1 to 10 | 1 to 10 | 1 to 10 | 1 to 10 | 1 to 10 | 1 to 10 | 0.1 to 1 | 1 to 10 | 1 to 10 | 1 to 10 | 1 to 10 | 1 to 10 | Cc1cn2cc(-c3cc4cn(C5CCNCC5)nc4s3)ncc2n1 [Compound 223]

The next lines start with the molecule.

SMILES | EC50 (MYB mRNA; [2]) [µM] | IC50 (MYB mRNA; [3]) [µM] | IC50 (MYB mRNA; [4]) [µM] | IC50 (Target C) [µM] | IC50 (Target C mRNA) [µM] | IC50 (HiBiT-tagged MYB protein) [µM] | IC50 (SMN2 mRNA) [µM] | IC50 (HiBiT-tagged HTT protein) [µM] | EC50 (HTT mRNA; [2]) [µM] | IC50 (HTT mRNA; [5]) [µM] | IC50 (HTT mRNA; [6]) [µM] | IC50 [1] [µM]
Cc1cn2nc(-n3cc4sc(C5CCNCC5)cc4n3)nc2c(C)n1 [Compound 170] | 1 to 10 | 1 to 10 | 1 to 10 | 1 to 10 | 1 to 10 | 1 to 10 | 1 to 10 | 1 to 10 | 1 to 10 | 1 to 10 | 1 to 10 | 1 to 10
Cc1nc2c(F)cc(-n3cc4cc(C5CCNCC5)sc4n3)cc2o1 [Compound 157] | 0.1 to 1 | 1 to 10 | 0.1 to 1 | < 0.1 | 0.1 to 1 | 0.1 to 1 | < 0.1 | < 0.1 | 0.1 to 1 | 0.1 to 1 | 0.1 to 1 | 0.1 to 1
Cc1cn2nc(-n3cc4cc(C5CCNCC5)sc4n3)nc2c(C)n1 [Compound 163, 4-(2-{6,8-dimethyl-[1,2,4]triazolo [1,5-a]pyrazin-2-yl}thieno[2,3-c]pyrazol-5-yl)piperidine] | 1 to 10 | 1 to 10 | 1 to 10 | 1 to 10 | 1 to 10 | 1 to 10 | 1 to 10 | 1 to 10 | 1 to 10 | 1 to 10 | 1 to 10 | 1 to 10
Cn1cc2cc(-c3cc4cn(C5CCNCC5)nc4s3)ccc2n1 [Compound 207] | 1 to 10 | 1 to 10 | 1 to 10 | 0.1 to 1 | 1 to 10 | 1 to 10 | < 0.1 | < 0.1 | 0.1 to 1 | 0.1 to 1 | 0.1 to 1 | 1 to 10
Cn1cc2cc(-n3cc4cc(C5CCNCC5)sc4n3)cc(F)c2n1 [Compound 104, 7-fluoro-2-methyl-5-[5-(piperidin-4-yl)thieno[2,3-c]pyrazol-2-yl]indazole] | 0.1 to 1 | 0.1 to 1 | 0.1 to 1 | 0.1 to 1 | 0.1 to 1 | 0.1 to 1 | < 0.1 | < 0.1 | 0.1 to 1 | < 0.1 | 0.1 to 1 | 0.1 to 1
Cc1nc2c(F)cc(-n3cc4sc(C5CCNCC5)cc4n3)cc2s1 [Compound 168] | 1 to 10 | > 10 | 1 to 10 | 1 to 10 | > 10 | 1 to 10 | 0.1 to 1 | 1 to 10 | 1 to 10 | 1 to 10 | 1 to 10 | 1 to 10
Cc1cn2nc(-n3cc4sc(C5CCNCC5)cc4n3)cc(C)c2n1 [Compound 101, 4-(2-[2,8-dimethylimidazo[1,2-b]pyridazin-6-yl]thieno[3,2-c]pyrazol-5-yl)piperidine] | 0.1 to 1 | 0.1 to 1 | 0.1 to 1 | < 0.1 | < 0.1 | 0.1 to 1 | < 0.1 | < 0.1 | 0.1 to 1 | < 0.1 | 0.1 to 1 | 0.1 to 1
Cc1cn2nc(-n3cc4cc(C5CCNCC5)sc4n3)cc2c(C)n1 [Compound 164] | 1 to 10 | 1 to 10 | 1 to 10 | 1 to 10 | 1 to 10 | 1 to 10 | 1 to 10 | 1 to 10 | 1 to 10 | 1 to 10 | 1 to 10 | 1 to 10
Cn1cc2cc(-n3cc4sc(C5CCNCC5)cc4n3)cc(F)c2n1 [Compound 105, 7-fluoro-2-methyl-5-[5-(piperidin-4-yl)thieno[3,2-c]pyrazol-2-yl]indazole] | 1 to 10 | 1 to 10 | 1 to 10 | 1 to 10 | 1 to 10 | 1 to 10 | 0.1 to 1 | 0.1 to 1 | 0.1 to 1 | 0.1 to 1 | 0.1 to 1 | 1 to 10
Cn1cc2cc(-c3cc4cn(C5=CCOCC5)nc4s3)cc(F)c2n1 [Compound 177] | > 10 | > 10 | > 10 | > 10 | > 10 | > 10 | > 10 | > 10 | > 10 | > 10 | > 10 | > 10
